These results are taken from patent publication US20190225650A1, “PEPTIDOMIMETIC MACROCYCLES AND USE THEREOF IN REGULATING HIF1ALPHA” (AILERON THERAPEUTICS, INC., priority 2013, published 2019).

Each structure is given as a SMILES string. Bridge positions count the residues as written; N and C are the ends. Square brackets hold non-standard residues; d marks the D form. Peptide text beside a SMILES is read from it. S5 = C=CCCC[C@](C)(N)C(=O)O; Nle = CCCC[C@H](N)C(=O)O

Assay [1] concerns the target T1, flag-tagged HIF1α (AA 786-826) / His6-tagged p300 (AA 323-423) complex (Homo sapiens, UniProt Q09472).
T1 construct: His6-tagged p300 (AA 323-423); made in house; host or cells: E. coli (pETDuet vector)
The assay can be described thus: HIF1α p300 displacement assay (TR FRET, +CHAPS). To be noted: read-out: IC50 (nM) (HIF1α_p300 Displacement + CHAPS). The format is binding. Summed up:
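The co-expressed flag-HIF1α (786-826)/His6-p300 (323-423) complex, purified from E. coli with 0.1 mM ZnSO4, was used at 300 nM final with competitor peptides for 1 h at room temperature. Buffer was 150 mM NaCl, 20 mM HEPES pH 7.4, 7.5 mM CHAPS and 1 mM DTT. Anti-Flag-K (0.5 μM) and anti-His-D2 (4 nM) were then added for 2 h, and IC50s were fitted from the TR-FRET ratio.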

Assay [2] has as its system HRE-bla ME-180 cells. Kind of assay: Reporter gene assay (HRE-bla ME-180 HIF reporter, GeneBLAzer). The format is cell-based, human. To be noted: for EC50: 24 hour normoxia. In outline: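 A FRET β-lactamase readout of HIF transcription was used. After compound treatment in 0.3% DMSO/media under normoxic conditions, 20 μl of 6× LiveBLAzer-FRET B/G (CCF4-AM) substrate was added. Plates sat 3 hr at room temperature in the dark and were read at 409 Ex/460Em and 409Ex/530Em on a Synergy 2. Inhibition was compared against DMSO vehicle controls, with chetomin as positive control.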

In assay [3] the test system is HRE-bla ME-180 cells. Kind of assay: Cell proliferation assay (viability, MTT, 1% FBS). The assay is classed as cell-based, human. Summed up: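 ME-180 cells (2×10^4/well) in Opti-MEM with 1% FBS were pretreated 16 h under normoxia (21% O2), vehicle 0.5% DMSO final. Incubation then continued under normoxia or hypoxia (1% O2); viable cells quantified by MTT-type CellTiter 96 assay.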

Turning to `CCCC[C@H](NC(=O)[C@H](Cc1ccccc1)NC(=O)[C@@H](NC(=O)[C@H](C)NC(=O)[C@H](CCC(N)=O)NC(=O)[C@H](CC(=O)O)NC(=O)[C@@H](NC(=O)[C@H](Cc1ccccc1)NC(C)=O)[C@@H](C)CC)C(C)C)C(=O)N[C@@]1(C)CCCC=CCCC[C@@](C)(C(=O)N[C@@H](CO)C(=O)N[C@@H](C)C(=O)N[C@@H](CC(C)C)C(=O)N[C@@H](CC(C)C)C(N)=O)NC(=O)[C@H]([C@@H](C)CC)NC(=O)[C@H](C(C)C)NC(=O)[C@H](CC(C)C)NC1=O` [SP-257] (Ac-FIDQAVF[Nle][S5]LVI[S5]SALL-NH2; staple 9-13), the IC50 in assay [1] was above 700 nM. For the same compound, in the assay on HRE-bla ME-180 cells [2], the “18 h Avg % max inhibition at top conc (HIF Rptr-24 hrs normoxia) (μM)” value (“18 h Avg % max inhibition at top conc” for short) is recorded as “++++ (≥50: ++++)” and the EC50 lay in the range of 5 to 15 µM. Also, the “Viability 1% FBS AVG (MTT V3-24 hr Normoxia) (μM)” value (shortened to “Viability 1% FBS AVG”) in the assay on HRE-bla ME-180 cells [3] is “++ (≤5 but <15: ++)”.
In the same order, the values of `CCCC[C@H](NC(=O)[C@H](Cc1ccccc1)NC(=O)[C@@H](NC(=O)[C@H](C)NC(=O)[C@H](CCC(N)=O)NC(=O)[C@H](CC(=O)O)NC(=O)[C@@H](NC(=O)[C@H](Cc1ccccc1)NC(C)=O)[C@@H](C)CC)C(C)C)C(=O)N[C@@]1(C)CCCC=CCCC[C@@](C)(C(=O)N[C@@H](Cc2c[nH]cn2)C(=O)N[C@@H](C)C(=O)N[C@@H](CC(C)C)C(=O)N[C@@H](CC(C)C)C(N)=O)NC(=O)[C@H]([C@@H](C)CC)NC(=O)[C@H](C(C)C)NC(=O)[C@H](CC(C)C)NC1=O` [SP-258] (Ac-FIDQAVF[Nle][S5]LVI[S5]HALL-NH2; staple 9-13) are above 700 nM, “+++ (≤25 but <50: +++)”, 5 to 15 µM and “++ (≤5 but <15: ++)”.
`CCCC[C@H](NC(=O)[C@H](Cc1ccccc1)NC(=O)[C@@H](NC(=O)[C@H](C)NC(=O)[C@H](CCC(N)=O)NC(=O)[C@H](CC(=O)O)NC(=O)[C@@H](NC(=O)[C@H](Cc1ccccc1)NC(C)=O)[C@@H](C)CC)C(C)C)C(=O)N[C@@]1(C)CCCC=CCCC[C@@](C)(C(=O)N[C@@H](Cc2c[nH]cn2)C(=O)N[C@@H](C)C(=O)N[C@@H](CC(C)C)C(=O)N[C@@H](CC(C)C)C(N)=O)NC(=O)[C@H]([C@@H](C)CC)NC(=O)[C@H](C(C)C)NC(=O)[C@H](CC(N)=O)NC1=O` [SP-259] (Ac-FIDQAVF[Nle][S5]NVI[S5]HALL-NH2; staple 9-13): in assay [1], the concentration for half-maximal inhibition (IC50) is above 700 nM. In addition, in the assay on HRE-bla ME-180 cells [2], the “18 h Avg % max inhibition at top conc” value is listed as “++++ (≥50: ++++)” and the concentration giving a half-maximal response (EC50) was at most 5 µM. Also, the “Viability 1% FBS AVG” value in the assay with HRE-bla ME-180 cells [3] is listed as “+ (<5: +)”.
For `CCCC[C@H](NC(=O)[C@H](Cc1ccccc1)NC(=O)[C@@H](NC(=O)[C@H](C)NC(=O)[C@H](CCC(N)=O)NC(=O)[C@H](CC(=O)O)NC(=O)[C@@H](NC(=O)[C@H](Cc1ccccc1)NC(C)=O)[C@@H](C)CC)C(C)C)C(=O)N[C@@]1(C)CCCC=CCCC[C@@](C)(C(=O)N[C@@H](CCC(N)=O)C(=O)N[C@@H](C)C(=O)N[C@@H](CC(C)C)C(=O)N[C@@H](CC(C)C)C(N)=O)NC(=O)[C@H]([C@@H](C)CC)NC(=O)[C@H](C(C)C)NC(=O)[C@H](Cc2c[nH]cn2)NC1=O` [SP-260] (Ac-FIDQAVF[Nle][S5]HVI[S5]QALL-NH2; staple 9-13), the IC50 in assay [1] was above 700 nM. Further, in the assay with HRE-bla ME-180 cells [2], the “18 h Avg % max inhibition at top conc” value is “++++ (≥50: ++++)” and the EC50 is at most 5 µM. The “Viability 1% FBS AVG” value in the assay on HRE-bla ME-180 cells [3] was “+ (<5: +)”.
With `CC[C@H](C)[C@H](NC(=O)[C@H](CCCNC(=N)N)NC(=O)[C@H](CC(=O)O)NC(=O)[C@H](CC(C)C)NC(=O)[C@H](C)NC(=O)[C@H](CCSC)NC(=O)[C@]1(C)CCCC=CCCC[C@](C)(NC(=O)[C@H](CCSC)NC(=O)[C@H](Cc2ccccc2)NC(=O)[C@@H](NC(=O)[C@H](CCC(=O)O)NC(=O)[C@H](CCC(=O)O)NC(=O)[C@H](CC(=O)O)NC(=O)[C@@H](NC(=O)[C@H](Cc2ccccc2)NC(C)=O)[C@@H](C)CC)C(C)C)C(=O)N[C@@H](CC(C)C)C(=O)N[C@@H](C(C)C)C(=O)N[C@@H]([C@@H](C)CC)C(=O)N1)C(N)=O` [SP-264] (Ac-FIDEEVFM[S5]LVI[S5]MALDRI-NH2; staple 9-13), the IC50 in assay [1] was 400 to 700 nM. For the same compound, in the assay on HRE-bla ME-180 cells [2], the “18 h Avg % max inhibition at top conc” value is “++ (≤10 but <25: ++)” and the concentration giving a half-maximal response (EC50) fell in the range of 15 to 30 µM. Besides, in the assay with HRE-bla ME-180 cells [3], the “Viability 1% FBS AVG” value was “++++ (≥30: ++++)”.
For `CCCC[C@H](NC(=O)[C@H](Cc1ccccc1)NC(=O)[C@@H](NC(=O)[C@H](CCC(=O)O)NC(=O)[C@H](CCC(=O)O)NC(=O)[C@H](CC(=O)O)NC(=O)[C@@H](NC(=O)[C@H](Cc1ccccc1)NC(C)=O)[C@@H](C)CC)C(C)C)C(=O)N[C@@]1(C)CCCC=CCCC[C@@](C)(C(=O)N[C@@H](CCCC)C(=O)N[C@@H](C)C(=O)N[C@@H](CC(C)C)C(=O)N[C@@H](CC(=O)O)C(=O)N[C@@H](CCCNC(=N)N)C(=O)N[C@H](C(N)=O)[C@@H](C)CC)NC(=O)[C@H]([C@@H](C)CC)NC(=O)[C@H](C(C)C)NC(=O)[C@H](CC(C)C)NC1=O` [SP-265] (Ac-FIDEEVF[Nle][S5]LVI[S5][Nle]ALDRI-NH2; staple 9-13), in that order: 200 to 400 nM, “++++ (≥50: ++++)”, 5 to 15 µM and “++++ (≥30: ++++)”.
As for `CC[C@H](C)[C@H](NC(=O)[C@H](CCCNC(=N)N)NC(=O)[C@H](CC(=O)O)NC(=O)[C@H](CC(C)C)NC(=O)[C@H](C)NC(=O)[C@H](CCSC)NC(=O)[C@]1(C)CCCC=CCCC[C@](C)(NC(=O)[C@H](CCSC)NC(=O)[C@H](Cc2ccccc2)NC(=O)[C@@H](NC(=O)[C@H](C)NC(=O)[C@H](CCC(N)=O)NC(=O)[C@H](CC(=O)O)NC(=O)[C@@H](NC(=O)[C@H](Cc2ccccc2)NC(C)=O)[C@@H](C)CC)C(C)C)C(=O)N[C@@H](CC(C)C)C(=O)N[C@@H](C(C)C)C(=O)N[C@@H]([C@@H](C)CC)C(=O)N1)C(N)=O` [SP-268] (Ac-FIDQAVFM[S5]LVI[S5]MALDRI-NH2; staple 9-13), the IC50 in assay [1] is above 700 nM. Moreover, in the assay on HRE-bla ME-180 cells [2], the “18 h Avg % max inhibition at top conc” value was “+++ (≤25 but <50: +++)” and the EC50 was above 30 µM. Moreover, the “Viability 1% FBS AVG” value in the assay with HRE-bla ME-180 cells [3] was “++++ (≥30: ++++)”.
`CCCC[C@H](NC(=O)[C@H](Cc1ccccc1)NC(=O)[C@@H](NC(=O)[C@H](CCC(=O)O)NC(=O)[C@H](CCC(N)=O)NC(=O)[C@H](CC(=O)O)NC(=O)[C@@H](NC(=O)[C@H](Cc1ccccc1)NC(C)=O)[C@@H](C)CC)C(C)C)C(=O)N[C@@]1(C)CCCC=CCCC[C@@](C)(C(=O)N[C@@H](CCCC)C(=O)N[C@@H](C)C(=O)N[C@@H](CC(C)C)C(=O)N[C@@H](CC(=O)O)C(=O)N[C@@H](CCCNC(=N)N)C(=O)N[C@H](C(N)=O)[C@@H](C)CC)NC(=O)[C@H]([C@@H](C)CC)NC(=O)[C@H](C(C)C)NC(=O)[C@H](CC(C)C)NC1=O` [SP-269] (Ac-FIDQEVF[Nle][S5]LVI[S5][Nle]ALDRI-NH2; staple 9-13): the IC50 in assay [1] fell in the range of 400 to 700 nM. Moreover, in the assay with HRE-bla ME-180 cells [2], the “18 h Avg % max inhibition at top conc” value is recorded as “+++ (≤25 but <50: +++)” and the EC50 was in the range of 15 to 30 µM. The “Viability 1% FBS AVG” value with HRE-bla ME-180 cells [3] was “++++ (≥30: ++++)”.
